According to US6737383B1, “Herbicidal oxadiazolidines” (priority 1999, dated 2004):

Key:
blackgrass = assay: Test B pre/postemergence blackgrass; assay type: in vivo, Alopecurus myosuroides
Summary of the method: (§1)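 Test chemicals in a non-phytotoxic solvent mixture with surfactant were sprayed preemergence onto planted seeds and postemergence onto plants 2 to 18 cm tall (1- to 4-leaf stage). After twelve to sixteen days in a greenhouse, injury was visually rated against untreated controls from 0 (no effect) to 10 (complete control).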

surinam grass = assay: Test B pre/postemergence surinam grass; assay type: in vivo, Brachiaria decumbens
Summary of the method: as §1

cocklebur = assay: Test B pre/postemergence cocklebur; assay type: in vivo, Xanthium strumarium
Summary of the method: as §1

corn = assay: Test B pre/postemergence corn; assay type: in vivo, Zea mays
Summary of the method: as §1

crabgrass = assay: Test B pre/postemergence crabgrass; assay type: in vivo, Digitaria sanguinalis
Summary of the method: as §1

giant foxtail = assay: Test B pre/postemergence giant foxtail; assay type: in vivo, Setaria faberii
Summary of the method: as §1

morningglory = assay: Test B pre/postemergence morningglory; assay type: in vivo, Ipomoea hederacea
Summary of the method: as §1

pigweed = assay: Test B pre/postemergence pigweed; assay type: in vivo, Amaranthus retroflexus
Summary of the method: as §1

soybean = assay: Test B pre/postemergence soybean; assay type: in vivo, Glycine max
Summary of the method: as §1

sugar beet = assay: Test B pre/postemergence sugar beet; assay type: in vivo, Beta vulgaris
Summary of the method: as §1

velvetleaf = assay: Test B pre/postemergence velvetleaf; assay type: in vivo, Abutilon theophrasti
Summary of the method: as §1

wheat = assay: Test B pre/postemergence wheat; assay type: in vivo, Triticum aestivum
Summary of the method: as §1

wild oat = assay: Test B pre/postemergence wild oat; assay type: in vivo, Avena fatua
Summary of the method: as §1

rice = assay: Test B flood test rice; assay type: in vivo, Oryza sativa
Summary of the method: (§2)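 Each value is a visual injury score relative to controls, with 10 meaning complete control and 0 no effect. Evaluation took place twelve to sixteen days after the 2-leaf-stage plants were treated and kept in the greenhouse.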

duck salad = assay: Test B flood test duck salad; assay type: in vivo, Heteranthera limosa
Summary of the method: as §2

bamyardgrass = assay: Test B flood test barnyardgrass; assay type: in vivo, Echinochloa crus-galli
Summary of the method: as §2

[1] = Postemergence, Rate 250 g/ha, scale 0 to 10
[2] = Postemergence, Rate 500 g/ha, scale of 0 to 10 where 0 is no effect and 10 is complete control
[3] = Preemergence, Rate 62 g/ha, scale of 0 to 10 where 0 is no effect and 10 is complete control
[4] = Preemergence, Rate 125 g/ha, scale of 0 to 10 where 0 is no effect and 10 is complete control
[5] = Preemergence, Rate 250 g/ha, scale 0 to 10, 0 is no effect, 10 is complete control
[6] = Preemergence, Rate 500 g/ha, scale 0 to 10, 0 is no effect, 10 is complete control
[7] = Rate 62 g/ha, Postemergence, scale 0 to 10 (0 no effect, 10 complete control)
[8] = Rate 125 g/ha, Postemergence, scale 0 to 10, 0 is no effect, 10 is complete control
[9] = Rate 62 g/ha, flood test species, Pre-emergence, visual evaluation after twelve to sixteen days
[10] = Rate 125 g/ha, under heading Pre-emergence, flood test species, visual evaluation after twelve to sixteen days
[11] = Rate 250 g/ha, Pre-emergence (flood test species), scale 0 to 10, 0 is no effect, 10 is complete control
[12] = Rate 500 g/ha, Pre-emergence, flood test species, scale 0 to 10 (0 no effect, 10 complete control)

COCC(OC)n1c(=O)on(C(=O)N(c2ccc(F)cc2)C(C)C)c1=O (centres unmarked) [Compound 446]
Blackgrass plant response rating (blackgrass; [1]): 8 | Blackgrass plant response rating (blackgrass; [2]): 9 | Plant response rating, Blackgrass (blackgrass; [3]): 5 | Plant response rating, Blackgrass (blackgrass; [4]): 7 | Blackgrass plant response rating (blackgrass; [5]): 8 | Blackgrass plant response rating (blackgrass; [6]): 10 | Blackgrass plant response rating (blackgrass; [7]): 4 | Blackgrass plant response rating (blackgrass; [8]): 8 | B. signalgrass plant response rating (surinam grass; Postemergence, Rate 250 g/ha, scale 0 to 10, 0 no effect, 10 complete control): 6 | B. signalgrass plant response rating (surinam grass; [2]): 8 | Plant response rating, B. signalgrass (surinam grass; [3]): 0 | Plant response rating, B. signalgrass (surinam grass; [4]): 6 | B. signalgrass plant response rating (surinam grass; [5]): 7 | B. signalgrass plant response rating (surinam grass; [6]): 8 | B. signalgrass plant response rating (surinam grass; [7]): 2 | B. signalgrass plant response rating (surinam grass; [8]): 3 | Cocklebur plant response rating (cocklebur; [1]): 0 | Cocklebur plant response rating (cocklebur; [2]): 0 | Plant response rating, Cocklebur (cocklebur; [3]): 0 | Plant response rating, Cocklebur (cocklebur; [4]): 0 | Cocklebur plant response rating (cocklebur; [5]): 0 | Cocklebur plant response rating (cocklebur; [6]): 0 | Cocklebur plant response rating (cocklebur; [7]): 0 | Cocklebur plant response rating (cocklebur; [8]): 0 | Corn plant response rating (corn; [1]): 0 | Corn plant response rating (corn; [2]): 5 | Plant response rating, Corn (corn; [3]): 0 | Plant response rating, Corn (corn; [4]): 0 | Corn plant response rating (corn; [5]): 2 | Corn plant response rating (corn; [6]): 6 | Corn plant response rating (corn; [7]): 0 | Corn plant response rating (corn; [8]): 0 | Crabgrass plant response rating (crabgrass; [1]): 9 | Crabgrass plant response rating (crabgrass; [2]): 9 | Plant response rating, Crabgrass (crabgrass; [3]): 8 | Plant response rating, Crabgrass (crabgrass; [4]): 8 | Crabgrass plant response rating (crabgrass; [5]): 9 | Crabgrass plant response rating (crabgrass; [6]): 9 | Crabgrass plant response rating (crabgrass; [7]): 5 | Crabgrass plant response rating (crabgrass; [8]): 9 | Giant foxtail plant response rating (giant foxtail; [1]): 9 | Giant foxtail plant response rating (giant foxtail; [2]): 9 | Plant response rating, Giant foxtail (giant foxtail; [3]): 9 | Plant response rating, Giant foxtail (giant foxtail; [4]): 10 | Giant foxtail plant response rating (giant foxtail; [5]): 10 | Giant foxtail plant response rating (giant foxtail; [6]): 10 | Giant foxtail plant response rating (giant foxtail; [7]): 6 | Giant foxtail plant response rating (giant foxtail; [8]): 9 | Morningglory plant response rating (morningglory; [1]): 3 | Morningglory plant response rating (morningglory; [2]): 3 | Plant response rating, Morningglory (morningglory; [3]): 0 | Plant response rating, Morningglory (morningglory; [4]): 0 | Morningglory plant response rating (morningglory; [5]): 0 | Morningglory plant response rating (morningglory; [6]): 9 | Morningglory plant response rating (morningglory; [7]): 2 | Morningglory plant response rating (morningglory; [8]): 2 | Redroot pigweed plant response rating (pigweed; [1]): 0 | Redroot pigweed plant response rating (pigweed; [2]): 0 | Plant response rating, Redroot pigweed (pigweed; [3]): 6 | Plant response rating, Redroot pigweed (pigweed; [4]): 10 | Redroot pigweed plant response rating (pigweed; [5]): 10 | Redroot pigweed plant response rating (pigweed; [6]): 10 | Redroot pigweed plant response rating (pigweed; [7]): 0 | Redroot pigweed plant response rating (pigweed; [8]): 0 | Soybean plant response rating (soybean; [1]): 4 | Soybean plant response rating (soybean; [2]): 4 | Plant response rating, Soybean (soybean; [3]): 0 | Plant response rating, Soybean (soybean; [4]): 0 | Soybean plant response rating (soybean; [5]): 2 | Soybean plant response rating (soybean; [6]): 2 | Soybean plant response rating (soybean; [7]): 1 | Soybean plant response rating (soybean; [8]): 2 | Sugarbeets plant response rating (sugar beet; [1]): 0 | Sugarbeets plant response rating (sugar beet; [2]): 0 | Plant response rating, Sugarbeets (sugar beet; [3]): 0 | Plant response rating, Sugarbeets (sugar beet; [4]): 4 | Sugarbeets plant response rating (sugar beet; [5]): 6 | Sugarbeets plant response rating (sugar beet; [6]): 8 | Sugarbeets plant response rating (sugar beet; [7]): 0 | Sugarbeets plant response rating (sugar beet; [8]): 0 | Velvetleaf plant response rating (velvetleaf; [1]): 2 | Velvetleaf plant response rating (velvetleaf; [2]): 3 | Plant response rating, Velvetleaf (velvetleaf; [3]): 0 | Plant response rating, Velvetleaf (velvetleaf; [4]): 3 | Velvetleaf plant response rating (velvetleaf; [5]): 7 | Velvetleaf plant response rating (velvetleaf; [6]): 10 | Velvetleaf plant response rating (velvetleaf; [7]): 0 | Velvetleaf plant response rating (velvetleaf; [8]): 0 | Wheat plant response rating (wheat; [1]): 3 | Wheat plant response rating (wheat; [2]): 3 | Plant response rating, Wheat (wheat; [3]): 0 | Plant response rating, Wheat (wheat; [4]): 2 | Wheat plant response rating (wheat; [5]): 3 | Wheat plant response rating (wheat; [6]): 7 | Wheat plant response rating (wheat; [7]): 0 | Wheat plant response rating (wheat; [8]): 0 | Wild oats plant response rating (wild oat; [1]): 3 | Wild oats plant response rating (wild oat; [2]): 3 | Plant response rating, Wild oats (wild oat; [3]): 0 | Plant response rating, Wild oats (wild oat; [4]): 5 | Wild oats plant response rating (wild oat; [5]): 8 | Wild oats plant response rating (wild oat; [6]): 10 | Wild oats plant response rating (wild oat; [7]): 0 | Wild oats plant response rating (wild oat; [8]): 0 | Plant response rating, Rice (0 to 10 scale, 0 is no effect, 10 is complete control) (rice; [9]): 0 | Rice plant response rating (0 to 10 scale, 0 is no effect, 10 is complete control) (rice; [10]): 0 | Rice plant response rating (rice; [11]): 0 | Rice plant response rating (rice; [12]): 0 | Plant response rating, Ducksalad (0 to 10 scale, 0 is no effect, 10 is complete control) (duck salad; [9]): 0 | Ducksalad plant response rating (0 to 10 scale, 0 is no effect, 10 is complete control) (duck salad; [10]): 0 | Ducksalad plant response rating (duck salad; [11]): 0 | Ducksalad plant response rating (duck salad; [12]): 0 | Plant response rating, Barnyardgrass (0 to 10 scale, 0 is no effect, 10 is complete control) (bamyardgrass; [9]): 0 | Barnyardgrass plant response rating (0 to 10 scale, 0 is no effect, 10 is complete control) (bamyardgrass; [10]): 0 | Barnyardgrass plant response rating (bamyardgrass; [11]): 0 | Barnyardgrass plant response rating (bamyardgrass; [12]): 0
